Measurements from patent US12617762B2, “Carboxy derivatives with antiinflamatory properties” (Sitryx Therapeutics Limited, priority 2019, dated 2026).
Read-outs that look alike come from different tables or passages of the source.

Columns and labels:
[1] = system: IL-1β cytokine output from THP-1s; assay: THP-1 AlphaLISA IL-1β cytokine inhibition assay; format: cell-based; settings: for IC50: Homo sapiens, THP-1, differentiated THP-1 cells, LPS then nigericin; for IL-1β lowering, result in words: THP-1 IL-1β assay
Method in brief: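 THP-1 cells differentiated with PMA for 72 h, pre-incubated with compound 30 min, then LPS-primed 24 h and Nigericin-stimulated 1 h (37° C./5% CO2). Supernatant IL-1β measured by AlphaLISA; percentage inhibition normalised to +LPS (high) and −LPS (low) plate controls.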

[2] = system: NRF2 (nuclear factor erythroid 2-related factor 2); assay: NRF2 +/-GSH activation assay (DiscoverX PathHunter NRF2 translocation kit, U2OS cells); format: cell-based; settings: for NRF2 activation +GSH Emax / NRF2 activation −GSH Emax: normalised to DMF high control
Experimental: Measuring Compound Activation Effects on the Anti-Inflammatory Transcription Factor NRF2 in DiscoverX PathHunter NRF2 Translocation Kit
Potency and efficacy of compounds of formula (I) against the target of interest to activate NRF2 (nuclear factor erythroid 2-related factor 2) were determined using the PathHunter NRF2 translocation kit (DiscoverX). The NRF2 translocation assay was run using an engineered recombinant cell line, utilising enzyme fragment complementation to determine activation of the Keap1-NRF2 protein complex and subsequent translocation of NRF2 into the nucleus. Enzyme activity was quantified using a chemiluminescent substrate consumed following the formation of a functional enzyme upon PK-tagged NRF2 translocation into the nucleus.
The assay was run under both +/−GSH (glutathione) conditions to determine the sensitivity of the compounds' NRF2-activating abilities to attenuation by GSH.
Additionally, a defined concentration of DMF was used as the ‘High’ control to normalise test compound activation responses to.
U2OS PathHunter eXpress cells were thawed from frozen prior to plating. Following plating, U2OS cells were incubated for 24 hrs (37° C./5% CO2) in commercial kit provided cell medium.
Following 24 hrs of U2OS incubation, cells were directly treated with an appropriate final concentration of compound, for −GSH conditions or, for +GSH conditions, an intermediate plate containing 6× working concentrations of compound stocks was prepared in a 6 mM working concentration of GSH solution (solubilised in sterile PBS). Following a 30 minute compound-GSH pre-incubation (37° C./5% CO2) for +GSH treatment, plated U2OS cells were incubated with an appropriate final concentration of compound and GSH.
Following compound (+/−GSH) treatment, the U2OS plates were incubated for a further 6 hours (37° C./5% CO2) before detection reagent from the PathHunter NRF2 commercial kit was prepared and added to test plates according to the manufacturer's instructions. Subsequently, the luminescence signal detection was measured in a microplate reader (PHERAstar®, BMG Labtech).
Percentage activation was calculated by normalising the sample data to the high and low controls used within each plate (+/−DMF).

[3] = Hepatocyte stability assay, mouse; format: in vitro ADME; settings: mouse, hepatocytes; for hepatocyte CLint at 10 μM: Hepatocyte stability Clint; for half-life at 10 μM: Hepatocyte stability T½
From the text: (§1) Defrosted cryo-preserved hepatocytes (viability >70%) were used to determine the metabolic stability of a compound via calculation of intrinsic clearance (CIint; a measure of the removal of a compound from the liver in the absence of blood flow and cell binding). Clearance data are particularly important for in vitro work as they can be used in combination with in vivo data to predict the half-life and oral bioavailability of a drug.
(§2) The metabolic stability in hepatocytes assay involves a time-dependent reaction using both positive and negative controls. The cells were pre-incubated at 37° C. then spiked with test compound (and positive control); samples were taken at pre-determined time intervals and were analysed to monitor the change in concentration of the initial drug compound over 60 minutes. A buffer incubation reaction (with no hepatocytes present) acted as a negative control and two cocktail solutions, containing compounds with known high and low clearance values (verapamil/7-hydroxycoumarin and propranolol/diltiazem), acted as positive controls. • 1. The assay was run with a cell concentration of 0.5×10^6 cells/mL in Leibovitz buffer. • 2. All compounds and controls were run in duplicate. • 3. Compound concentration was 10 μM. • 4. All compounds and controls were incubated with both cells and buffer to show turnover was due to hepatic metabolism. • 5. All wells on the incubation plate had 326.7 μL of either cells or buffer added. • 6. Prior to assay, cell and buffer-only incubation plates were preincubated for 10 mins at 37° C. • 7. The assay was initiated by adding compounds, 3.3 μL of 1 mM in 10% DMSO—90% Buffer; final DMSO concentration was 0.1%. • 8. Samples were taken at regular timepoints (0, 5, 10, 20, 40, 60 min) until 60 mins. • 9. Sample volume was 40 μL and was added to 160 μL of crash solvent (acetonitrile with internal standard) and stored on ice. • 10. At the end of the assay, the crash plates were centrifuged at 3500 rpm for 20 mins at 4° C. • 11. 80 μL of clear supernatant was removed and mixed with 80 μL of deionised water before being analysed by LC-MS/MS.
(§3) Raw LC-MS/MS data was exported to, and analysed in, Microsoft Excel for determination of intrinsic clearance. The percentage remaining of a compound was monitored using the peak area of the initial concentration as 100%. Intrinsic clearance and half-life values were calculated using a graph of the natural log of percentage remaining versus the time of reaction in minutes.

[4] = Hepatocyte stability assay, human; format: in vitro ADME; settings: human, hepatocytes; for hepatocyte CLint at 10 μM: Hepatocyte stability Clint; for half-life at 10 μM: Hepatocyte stability T½
From the text: as §1, §2, §3

[5] = +GSH, 30 minute compound-GSH pre-incubation, read-out: NRF2 activation +GSH EC50
[6] = −GSH, U2OS PathHunter cells, 6 hours compound treatment, read-out: NRF2 activation −GSH EC50

Row | SMILES | IC50 [1] | EC50 [2, 5] | NRF2 activation +GSH Emax ([2]; +GSH) | EC50 [2, 6] | NRF2 activation −GSH Emax ([2]; −GSH) | hepatocyte CLint at 10 μM [3] | half-life at 10 μM [3] | hepatocyte CLint at 10 μM [4] | half-life at 10 μM [4] | IL-1β lowering, result in words [1]
1 | C=C(Cc1nc(CCCCCCCC)co1)C(=O)O [Example 39, 2-((4-octyloxazol-2-yl)methyl)acrylic acid] | 8.5 µM | 7.6 µM | 172% | 5.1 µM | 234% | > 460 µL/min/1e6 cells | < 0.05 h | 386 µL/min/1e6 cells | 0.05 h | 
2 | C=C(Cc1nc(-c2ccc(Cl)cc2)no1)C(=O)O [Example 7, 2-((3-(4-chlorophenyl)-1,2,4-oxadiazol-5-yl)methyl)acrylic acid] | > 100 µM | 44.5 µM | 89% | 39.7 µM | 113% | 28 µL/min/1e6 cells | 0.817 h | < 6 µL/min/1e6 cells | > 5.33 h | not effective
3 | C=C(Cc1nc(-c2ccc(CCCCC)cc2)no1)C(=O)O [Example 23, 2-((3-(4-pentylphenyl)-1,2,4-oxadiazol-5-yl)methyl)acrylic acid] | 4.6 µM | 2.2 µM | 162% | 1.6 µM | 209% | > 460 µL/min/1e6 cells | < 0.05 h | 321 µL/min/1e6 cells | 0.0833 h | 
4 | C=C(Cc1nc(Cc2ccc(OC(F)(F)F)cc2)no1)C(=O)O [Example 46, 2-((3-(4-(trifluoromethoxy)benzyl)-1,2,4-oxadiazol-5-yl)methyl)acrylic acid] | 41.9 µM | 36.2 µM | 51% | 31.1 µM | 106% | 17 µL/min/1e6 cells | 1.27 h | < 3 µL/min/1e6 cells | > 7.45 h | 
5 | C=C(Cc1nc(C2(c3ccc(Cl)cc3)CCC2)no1)C(=O)O [Example 25, 2-((3-(1-(4-chlorophenyl)cyclobutyl)-1,2,4-oxadiazol-5-yl)methyl)acrylic acid] | 64.1 µM | > 100 µM | 31% | > 100 µM | 32% | 17 µL/min/1e6 cells | 1.5 h | 12 µL/min/1e6 cells | 1.73 h | 
6 | C=C(Cc1nc(CCCCCCC(C)(F)F)no1)C(=O)O [Example 31, 2-((3-(7,7-difluorooctyl)-1,2,4-oxadiazol-5-yl)methyl)acrylic acid] | > 100 µM | 40.9 µM | 127% | 35 µM | 178% | 42 µL/min/1e6 cells | 0.45 h | 5 µL/min/1e6 cells | 4.1 h | not effective
